Publication PMC4922860, “Atypical calcium regulation of the PKD2-L1 polycystin ion channel” (eLife, 2016)
Positions count from the first letter of the chain named.

Key:
Type in all cases: cell-based
[1] = molecular target: T1, human PKD2-L1 (Wt), homomeric channel (Homo sapiens, UniProt Q9P0L9); assay: whole-cell patch clamp, current potentiation, voltage ramps
T1 construct: gene PKD2L1; full-length isoform 1 in pTracer CMV2, transiently transfected HEK 293T cells; homotetramer; whole-cell patch clamp
T1 sequence (Q9P0L9 1-805): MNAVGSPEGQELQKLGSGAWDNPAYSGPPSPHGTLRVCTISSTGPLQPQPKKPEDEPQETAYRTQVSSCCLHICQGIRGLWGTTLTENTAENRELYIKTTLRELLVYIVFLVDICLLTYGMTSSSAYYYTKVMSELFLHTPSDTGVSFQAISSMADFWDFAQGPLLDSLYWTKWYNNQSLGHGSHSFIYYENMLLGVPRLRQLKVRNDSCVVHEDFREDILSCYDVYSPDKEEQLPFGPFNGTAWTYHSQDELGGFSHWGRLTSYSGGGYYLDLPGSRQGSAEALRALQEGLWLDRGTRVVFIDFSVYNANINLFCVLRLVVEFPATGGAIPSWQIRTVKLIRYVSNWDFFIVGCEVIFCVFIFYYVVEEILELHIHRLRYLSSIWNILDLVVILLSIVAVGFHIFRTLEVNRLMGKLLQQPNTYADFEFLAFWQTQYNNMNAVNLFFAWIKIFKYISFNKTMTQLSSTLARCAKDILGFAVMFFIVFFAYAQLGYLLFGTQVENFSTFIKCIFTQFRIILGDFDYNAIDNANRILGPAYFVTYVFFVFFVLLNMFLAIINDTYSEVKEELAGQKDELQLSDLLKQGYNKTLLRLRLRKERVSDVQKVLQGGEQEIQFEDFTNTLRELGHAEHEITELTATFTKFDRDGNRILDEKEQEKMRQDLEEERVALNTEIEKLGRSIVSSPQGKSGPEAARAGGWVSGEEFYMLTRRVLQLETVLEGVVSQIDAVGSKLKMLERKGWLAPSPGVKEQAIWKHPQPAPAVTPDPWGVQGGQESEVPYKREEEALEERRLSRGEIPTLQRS

[2] = molecular target: T2, human PKD2-L1, homomeric channel (Homo sapiens, UniProt Q9P0L9, D523N); assay: as above
T2 construct: gene PKD2L1; full-length isoform 1 in pTracer CMV2, transiently transfected HEK 293T cells; homotetramer; whole-cell patch clamp
T2 sequence (Q9P0L9 1-805 D523N): T1 sequence (Q9P0L9 1-805) with D523N

[3] = molecular target: T2, human PKD2-L1, homomeric channel; assay: whole-cell patch clamp, current block, voltage ramps, Hill fit
[4] = molecular target: T1, human PKD2-L1 (Wt), homomeric channel; assay: as above

Row | SMILES | EC50 [1] [µM] | EC50 [2] [µM] | IC50 [3] [µM] | IC50 [4] [µM]
1 | Clc1ccc(C(c2ccc(Cl)cc2)n2cc[n+](CC(OCc3ccc(Cl)cc3Cl)c3ccc(Cl)cc3Cl)c2)cc1 (stereo not shown) [calmidazolium] | 2.6 ± 6 | 9 ± 7 |  | 
2 | CCCCOc1cc(C(=O)NCCN(CC)CC)c2ccccc2n1 [dibucaine] |  |  | 23 ± 3 | 31 ± 5
